We go through 29 compounds from patent publication US20080269170A1, “Novel 2,4-Dianilinopyrimidine Derivatives, the Preparation Thereof, Their Use as Medicaments, Pharmaceutical Compositions and, in Particular, as IKK Inhibitors” (sanofi-aventis, priority 2005, published 2008).

Take `CN(C1CCN(CCC(F)(F)F)CC1)S(=O)(=O)c1ccc(Nc2nccc(Nc3ccc(F)c(F)c3)n2)cc1` [Example 109, 4-({4-[(3,4-Difluorophenyl)amino]pyrimidin-2-yl}amino)-N-methyl-N-[1-(3,3,3-trifluoro-propyl)piperidin-4-yl]benzenesulfonamide]: the melting point – broadly, the temperature, or range, at which the solid turns liquid – fell in the range of 202 to 203 °C.

Compound `Cc1cc(Nc2ccnc(Nc3ccc(S(=O)(=O)N(C)C4CCN(Cc5cccn5C)CC4)cc3)n2)ccc1F` [Example 110, 4-({4-[(4-Fluoro-3-methylphenyl)amino]-pyrimidin-2-yl}amino)-N-methyl-N-{1-[(1-methyl-1H-pyrrol-2-yl)methyl]piperidin-4-yl}benzenesulfonamide] displayed a melting point of 159 to 160 °C.

In the case of `Cc1cc(Nc2ccnc(Nc3ccc(S(=O)(=O)N(C)C4CCN(Cc5cc[nH]c5)CC4)cc3)n2)ccc1F` [Example 111, 4-({4-[(4-Fluoro-3-methylphenyl)amino]-pyrimidin-2-yl}amino)-N-methyl-N-{1-[(1H-pyrrol-3-yl)-methyl]piperidin-4-yl}benzenesulfonamide], the melting point was in the range of 134 to 139 °C.

`CN(C1CCN(CC(F)(F)F)CC1)S(=O)(=O)c1ccc(Nc2nccc(Nc3ccc(F)cc3)n2)cc1` [Example 112, 4-({4-[(4-Fluorophenyl)amino]pyrimidin-2-yl}amino)-N-methyl-N-[1-(2,2,2-trifluoroethyl)piperidin-4-yl]benzenesulfonamide] gave a melting point of 201 to 202 °C.

Compound `CN(C1CCSCC1)S(=O)(=O)c1ccc(Nc2nccc(Nc3ccc(F)cc3)n2)cc1` [Example 113, 4-({4-[(4-Fluorophenyl)amino]pyrimidin-2-yl}amino)-N-methyl-N-(tetrahydro-2H-thiopyran-4-yl)-benzenesulfonamide] registered a melting point of 181.5 °C.

`CN(C)CCN(C1CCS(=O)(=O)C1)S(=O)(=O)c1ccc(Nc2nccc(Nc3ccc(F)cc3)n2)cc1` (centres unmarked) [Example 114, N-[2-(Dimethylamino)ethyl]-N-(1,1-dioxido-tetrahydro-3-thienyl)-4-({4-[(4-fluorophenyl)amino]-pyrimidin-2-yl}amino)benzenesulfonamide]: the melting point was 162 to 165 °C.

In turn, `CN(C1CCC(=O)CC1)S(=O)(=O)c1ccc(Nc2nccc(Nc3ccc(F)cc3)n2)cc1` [Example 118, 4-({4-[(4-Fluorophenyl)amino]pyrimidin-2-yl}amino)-N-methyl-N-(4-oxocyclohexyl)benzenesulfonamide] displayed a melting point of 203 °C.

In the case of `O=S(=O)(c1ccc(Nc2nccc(Nc3ccc(F)cc3)n2)cc1)N(CCN1CCCC1)[C@H]1CC[C@H](O)CC1` [Example 119, 4-({4-[(4-Fluorophenyl)amino]pyrimidin-2-yl}amino)-N-(trans-4-hydroxycyclohexyl)-N-(2-pyrrolidin-1-ylethyl)benzenesulfonamide], the melting point was 135.2 °C.

In the case of `CN(C1CCC(O)CC1)S(=O)(=O)c1ccc(Nc2nccc(Nc3ccc(F)cc3)n2)cc1` (centres unmarked) [Example 120, 4-({4-[(4-Fluorophenyl)amino]pyrimidin-2-yl}amino)-N-(4-hydroxycyclohexyl)-N-methylbenzene-sulfonamide], the melting point came to 203 °C.

The compound `CNC1CCC(N(C)S(=O)(=O)c2ccc(Nc3nccc(Nc4ccc(F)cc4)n3)cc2)CC1` (stereo not drawn) [Example 121, 4-({4-[(4-Fluorophenyl)amino]pyrimidin-2-yl}amino)-N-methyl-N-[4-cis(methylamino)cyclohexyl]-benzenesulfonamide] came in with a melting point of 192 °C.

As for `CNC1CCC(N(C)S(=O)(=O)c2ccc(Nc3nccc(Nc4ccc(F)cc4)n3)cc2)CC1` (stereo not drawn) [Example 122, 4-({4-[(4-Fluorophenyl)amino]pyrimidin-2-yl}amino)-N-methyl-N-[4-trans(methylamino)cyclohexyl]-benzenesulfonamide], the melting point worked out at 195 °C.

With `CCSCCN1CCC(NS(=O)(=O)c2ccc(Nc3nccc(Nc4ccc(F)cc4)n3)cc2)CC1` [Example 125, N-{1-[2-(Ethylthio)ethyl]piperidin-4-yl}-4-({4-[(4-fluorophenyl)amino]pyrimidin-2-yl}amino)-benzenesulfonamide], the melting point amounted to 194 °C.

`CS(=O)(=O)CCN1CCC(NS(=O)(=O)c2ccc(Nc3nccc(Nc4ccc(F)cc4)n3)cc2)CC1` [Example 126, 4-({4-[(4-Fluorophenyl)amino]pyrimidin-2-yl}amino)-N-{1-[2-(methylsulfonyl)ethyl]piperidin-4-yl}benzenesulfonamide]: the melting point was determined as 183 °C.

`COCCN(C1CCS(=O)(=O)C1)S(=O)(=O)c1ccc(Nc2nccc(Nc3ccc(F)cc3)n2)cc1` (centres unmarked) [Example 127, 4-[[4-[(4-Fluorophenyl)amino]-2-pyrimidin-yl]amino]-N-(2-methoxyethyl)-N-(tetrahydro-1,1-dioxido-3-thienyl)benzenesulfonamide] showed a melting point of 150 °C.

As for `C=CCN(C1CCN(C)CC1)S(=O)(=O)c1ccc(Nc2nccc(Nc3ccc(F)cc3)n2)cc1` [Example 128, 4-({4-[(4-Fluorophenyl)amino]pyrimidin-2-yl}amino)-N-allyl-N-(1-methylpiperidin-4-yl)benzene-sulfonamide], the melting point worked out at 167 °C.

The compound `Cc1cc(Nc2ccnc(Nc3ccc(S(=O)(=O)N(C)C4CCN(CCS(C)(=O)=O)CC4)cc3)n2)ccc1F` [Example 129, 4-({4-[(4-Fluoro-3-methylphenyl)amino]-pyrimidin-2-yl}amino)-N-methyl-N-{1-[2-(methyl-sulfonyl)ethyl]piperidin-4-yl}benzenesulfonamide] displayed a melting point of 114.5 °C.

`CCCN(C1CCN(C)CC1)S(=O)(=O)c1ccc(Nc2nccc(Nc3ccc(F)cc3)n2)cc1` [Example 130, 4-({4-[(4-Fluorophenyl)amino]pyrimidin-2-yl}amino)-N-propyl-N-(1-methylpiperidin-4-yl)benzene-sulfonamide] yielded a melting point of 232 °C.

`Cc1cc(Nc2ccnc(Nc3ccc(S(=O)(=O)N(C)C4CCN(Cc5nccs5)CC4)cc3)n2)ccc1F` [Example 131, 4-({4-[(4-Fluoro-3-methylphenyl)amino]-pyrimidin-2-yl}amino)-N-methyl-N-{1-[(1-thiazol-2-yl)-methyl]piperidin-4-yl}benzenesulfonamide] had a melting point of 176 to 177 °C.

Compound `Cc1cc(Nc2ccnc(Nc3ccc(S(=O)(=O)N(C)C4CCN(Cc5cncs5)CC4)cc3)n2)ccc1F` [Example 132, 4-({4-[(4-Fluoro-3-methylphenyl)amino]-pyrimidin-2-yl}amino)-N-methyl-N-{1-[(1-thiazol-5-yl)-methyl]piperidin-4-yl}benzenesulfonamide] gave a melting point of 196 to 197 °C.

With `Cc1cc(Nc2ccnc(Nc3ccc(S(=O)(=O)N(C)C4CCN(Cc5cn[nH]c5)CC4)cc3)n2)ccc1F` [Example 134, 4-({4-[(4-Fluoro-3-methylphenyl)amino]-pyrimidin-2-yl}amino)-N-methyl-N-{1-[(1H-pyrazol-4-yl)methyl]piperidin-4-yl}benzenesulfonamide], the melting point is 224 °C.

As to `Cc1cc(Nc2ccnc(Nc3ccc(S(=O)(=O)N(C)C4CCN(Cc5cnn(C)c5)CC4)cc3)n2)ccc1F` [Example 135, 4-({4-[(4-Fluoro-3-methylphenyl)amino]-pyrimidin-2-yl}amino)-N-methyl-N-{1-[(1-methyl-1H-pyrazol-4-yl)methyl]piperidin-4-yl}benzenesulfonamide], the melting point lay in the range of 125 to 150 °C.

`Cc1cc(CN2CCC(N(C)S(=O)(=O)c3ccc(Nc4nccc(Nc5ccc(F)c(C)c5)n4)cc3)CC2)[nH]n1` [Example 136, 4-({4-[(4-Fluoro-3-methylphenyl)amino]-pyrimidin-2-yl}amino)-N-methyl-N-{1-[(5-methyl-2H-pyrazol-3-yl)methyl]piperidin-4-yl}benzenesulfonamide] returned a melting point of 130 °C.

`Cc1cc(Nc2ccnc(Nc3ccc(S(=O)(=O)N(C)C4CCC(F)(F)CC4)cc3)n2)ccc1F` [Example 137, N-(4,4-Difluorocyclohexyl)-4-[4-(4-fluoro-3-methylphenylamino)pyrimidin-2-ylamino]-N-methyl-benzenesulfonamide] yielded a melting point of 164 to 165 °C.

`Cc1cc(CN2CCC(N(C)S(=O)(=O)c3ccc(Nc4nccc(Nc5ccc(F)c(C)c5)n4)cc3)CC2)no1` [Example 138, 4-({4-[(4-Fluoro-3-methylphenyl)amino]-pyrimidin-2-yl}amino)-N-methyl-N-{1-[(5-methylisoxazol-3-yl)methyl]piperidin-4-yl}benzenesulfonamide] had a melting point of 172 to 173 °C.

As to `Cc1cc(Nc2ccnc(Nc3ccc(S(=O)(=O)N(C)C4CCCN(C)C4)cc3)n2)ccc1F` (centres unmarked) [Example 139, 4-({4-[(4-Fluoro-3-methylphenyl)amino]-pyrimidin-2-yl}amino)-N-methyl-N-(1-methylpiperidin-3-yl)benzenesulfonamide], the melting point was 188 °C.

As for `CN(C)C1CCC(N(C)S(=O)(=O)c2ccc(Nc3nccc(Nc4ccc(F)cc4)n3)cc2)CC1` (stereo not drawn) [Example 140, 4-({4-[(4-Fluorophenyl)amino]pyrimidin-2-yl}amino)-N-methyl-N-[4-cis(dimethylamino)cyclohexyl]-benzenesulfonamide], the melting point came out at 222 °C.

`CN(C)C1CCC(N(C)S(=O)(=O)c2ccc(Nc3nccc(Nc4ccc(F)cc4)n3)cc2)CC1` (stereo not drawn) [Example 141, 4-({4-[(4-Fluorophenyl)amino]pyrimidin-2-yl}amino)-N-methyl-N-[4-trans(dimethylamino)cyclo-hexyl]benzenesulfonamide] showed a melting point of 218 °C.

The compound `CCNC1CCC(N(C)S(=O)(=O)c2ccc(Nc3nccc(Nc4ccc(F)cc4)n3)cc2)CC1` (stereo not drawn) [Example 142, 4-({4-[(4-Fluorophenyl)amino]pyrimidin-2-yl}amino)-N-methyl-N-[4-cis(ethylamino)cyclohexyl]-benzenesulfonamide] registered a melting point of 188 °C.

`CCNC1CCC(N(C)S(=O)(=O)c2ccc(Nc3nccc(Nc4ccc(F)cc4)n3)cc2)CC1` (stereo not drawn) [Example 143, 4-({4-[(4-Fluorophenyl)amino]pyrimidin-2-yl}amino)-N-methyl-N-[4-trans(ethylamino)cyclohexyl]-benzenesulfonamide] showed a melting point of 178 °C.
